Assay results reported in EP2662079A1 (Ordway Research Institute, Inc., priority 2012, dated 2013).
Values joined by “and” are separate entries in the source; they are usually repeats but may differ in a detail not shown here. Equal values may be shown once.

Legend:
[1] = test system: SKN-SH, SaOS2, and MCF7 cells; experiment: Proliferation of drug-sensitive and drug-resistant cancer cells (MTT assay); assay type: cell-based
Source text: Cells were harvested and nuclear fractions prepared as described previously. Nucleoproteins, separated by gel electrophoresis, were immunoblotted with antibody to phosphorylated MAPK (pERK1 and pERK2, 44 and 42 kDa, respectively), followed by a second antibody linked to a luminescence-detection system. A β-action immunoblot of nuclear fractions serves as a control for gel loading in each part of this figure. […] The levels of FGF2 cDNA, shown in the top blot, were corrected for variations in GAPDH cDNA content, shown in the bottom blot, and the corrected levels of FGF2 are illustrated below in the graph (mean ±SE of mean; n = 2 experiments). […] Drug-sensitive and -resistant SKN-SH (Figures 13C-D), SaOS2 (Figures 13A-B), and MCF7 (Figures 13E-F) cells were subjected to treatment with increasing concentrations of Tetrac or Doxirubicin over a period of 4 days. Cell viability was then measured by MTT assay. […] The cells were treated for 24 h with each drug alone or the combination of both, after that, expression of drug resistance molecules was determined by Western blot using specific antibodies. […] The cells were incubated for 24 hours with doxorubicin in the absence or the presence of Tetrac, after that they were washed and then solubilized. […]

[2] = test system: MDA-MB-231 cells; experiment: RNA microarray of MDA-MB-231 cells; assay type: cell-based, human
Procedure: Tetrac and nanoparticulate Tetrac. Tetrac was custom-synthesized by Peptido GMBH (Bembach, Germany). The proprietary Tetrac nanoparticle was custom-synthesized by covalently-bonding of the outer ring hydroxyl of Tetrac to PLGA via an intervening linker. […] Cell culture for definition of effects of Tetrac formulations on tumor cell proliferation. MDA-MB-231 cells were purchased from ATCC (Manassas, VA). Cells were maintained until use in DMEM that contained 10% FBS. The incubator conditions were 5% CO2/95% 02 and 37° C. The action of unmodified Tetrac and nanoparticulate on MDA-MB-231 cells was determined in a perfusion bellows cell culture system we have recently described for quantitating pharmaceutical agent pharmacodynamics in vitro. (See Lin et al., J Steroid Biochem Mol Biol 113: 182-188 (2009)). In brief, the cell culture system is a disposable bioreactor capable of high density cell culture for studies of anti-cancer drugs. Bellows-induced alternate flow of culture medium and air through porous matrices where cells are grown provides a relatively low shear, high aeration, foam-free culture environment. Medium level is raised and lowered to submerge and expose matrices to create a dynamic interface between air and media on the cell surface. Anchorage-dependent cells are grown on plastic flakes in the system. The flakes facilitate harvesting of whole cells for analysis. In the present studies, 5 x 10^7 cells were seeded in each perfusion flask and incubated at 37 C overnight. Flakes thereafter were sampled at regular intervals (Figure 44), subjected to trypsinization and the harvested cells counted. When Tetrac or nanoparticulate Tetrac were initially added to the system, flasks contained 20-50 x 10^6 cells. Cell cultures were re-fed with 1% FBS-containing medium. Studies were carried out in duplicate flasks and replicated once. Cell culture for harvesting of RNA. MDA-MB-231 cells were maintained in DMEM that was supplemented with 10% FBS in a 5% CO2/95% 02 air incubator at 37°C. For two days prior to exposure to Tetrac and nanoparticulate Tetrac, cells were maintained in 0.25% FBS that was stripped of estrogen and thyroid hormone. (See Lin et al., Biochemistry 42: 7571-7579 (2003)). RNA microarray and analysis. Microarray analysis experiments were conducted as described previously. (See Glinsky et al., J Clin Invest 115: 1503-1521 (2005); Glinsky et al., J Clin Invest 113: 913-923 (2004); Glinsky et al., Clin Cancer Res 10: 2272-2283 (2004); and Glinsky et al., Mol Carcinog 37: 209-221 (2003)). In brief, the array hybridization and processing, retrieval of data and analysis utilized standard sets of Affymetrix (Santa Clara, CA) equipment, software and protocols in the microarray core facility of Ordway Research Institute. […] Sample purity and integrity were verified with an Agilent BioAnalyzer (Santa Clara, CA). Expression analysis of 54,675 transcripts for each sample was by Affymetrix HG-U133A Plus 2.0 arrays. MAS5.0 software was used for data retrieval and analysis and concordant changes of gene expression in response to unmodified Tetrac and nanoparticulate Tetrac were defined by two-tailed t test at a threshold p value < 0.01.
Expression of ~54,000 transcripts was analyzed in control and drug-treated cultures, using Affymetrix Human Genome U133 plus 2.0 microarrays. Subsequent analysis was focused on genes affected by treatment at p < 0.01. There was 93% concordance between Tetrac and Tetrac NP in terms of genes affected; notable disparities included downregulation of epidermal growth factor receptor (EGFR) by Tetrac NP and no affect of unmodified Tetrac on this gene.

[3] = test system: U87MG cells; experiment: Neutral comet assay (DNA double-strand breaks); assay type: cell-based, human
Procedure: For the comet assay studies of induction and repair of DSBs in U87MG cells, cells were treated as described above. However, for the single dose induction ofDSBs doses ranged from 0-30 Gy, and for the study of the repair ofDSBs in irradiated cells, a large single dose of 60 Gy requiring approximately 1 h of irradiation time was given. Appropriate temperature controls (on ice) were run to insure that no decrement in survival was produced by the 1 h exposure to 0°C.
U87MG cells on plastic slides were exposed to 2 nM Tetrac for 1 h at 37°C. These slides were then placed on crushed ice and irradiated with doses from 0 to 75 Gy. Slides were immersed in lysing solution at 50°C for 2 hours. Slides were washed, and placed into a gel electrophoresis unit. Electrophoresis was carried out at 0.66 V/cm for 25 min. Cells were stained with ethidium bromide and image analysis was done using an epifluoresence microscope at a total magnification of 400 X. We also used an excitation filter of 515-535 nm and a barrier filter at 590 nm. The mean tail moment (TM) which is expressed in arbitrary units was then calculated. TM was calculated using a CCD camera and software. Approximately 350 comets were analyzed per condition.

[4] = gene expression, listed as unmodified Tetrac
[5] = single dose of 30 Gy, Tetrac-treated cells

## O=C(O)Cc1cc(I)c(Oc2cc(I)c(O)c(I)c2)c(I)c1 [Tetrac, 3,3',5,5'-tetraiodothyroacetic acid]
[1]; 4 days, MTT (Figure 13)
  anti-proliferative activity in vitro against drug-sensitive and drug-resistant cells: equivalent
[1]; resistant SKN-SH/R, MCF7/R and SaOS2/R cells (Figure 14)
  cellular responses to doxorubicin, etoposide, cisplatin and TSA when combined with Tetrac: significantly enhanced
[2]; 10^-7 M, 24 h
  expression of epidermal growth factor receptor (EGFR): no affect
[2]; gene expression
  Change: CBY1: significantly increased
  Change: CDKN2C (Cyclin-dependent kinase inhibitor): ↑
  Change: Cyclins (Cell cycle regulators): ↓
  Change: THBS1: strongly induced
[2]; [4]
  Change: BCL2L14: not a significant stimulatory action
  Change: CASP2: not a significant stimulatory action
  Change: MCL1: did not significantly affect
  Change: XIAP: also acted on XIAP
[3]
  increase of the slow repair part of the curve: approximately 2.2 fold
[3]; 0 Gy
  sensitization factor (steady-state DSB levels): 2.2
[3]; 0 radiation dose, 1 h Tetrac at 37°C, arbitrary units
  mean tail moment: 12.4 and 13.1
[3]; after 30 Gy of x-rays (control -4.36)
  slope of DSB repair versus time: -1.20
[3]; [5]
  relative percentage of fast repair: 16%
  relative percentage of slow repair: 84%
[3]; vs control U87MG cells
  inhibition of the repair of DNA double strand breaks: 72.5%
